From patent US5891717A, “Methods and compositions for inhibiting hexokinase” (priority 1996, dated 1999)

How the values were obtained:
[1] = biological target: T1, HK-isletGK chimera: N-terminal 455 amino acids of rat hexokinase I fused to rat islet glucokinase, SEQ ID NO:12 (DNA SEQ ID NO:11) (Rattus norvegicus, UniProt P17712); assay: Glucose phosphorylating activity in extracts of transiently transfected 293 cells, with and without G6P; format: biochemical; conditions: 10 mM G6P, 20 mM glucose, 293 cell extracts
T1 construct: expressed in transfected cells; host or cells: human embryonic kidney 293 cells, crude extract
T1 sequence (P17712 with tags, fused parts or gaps): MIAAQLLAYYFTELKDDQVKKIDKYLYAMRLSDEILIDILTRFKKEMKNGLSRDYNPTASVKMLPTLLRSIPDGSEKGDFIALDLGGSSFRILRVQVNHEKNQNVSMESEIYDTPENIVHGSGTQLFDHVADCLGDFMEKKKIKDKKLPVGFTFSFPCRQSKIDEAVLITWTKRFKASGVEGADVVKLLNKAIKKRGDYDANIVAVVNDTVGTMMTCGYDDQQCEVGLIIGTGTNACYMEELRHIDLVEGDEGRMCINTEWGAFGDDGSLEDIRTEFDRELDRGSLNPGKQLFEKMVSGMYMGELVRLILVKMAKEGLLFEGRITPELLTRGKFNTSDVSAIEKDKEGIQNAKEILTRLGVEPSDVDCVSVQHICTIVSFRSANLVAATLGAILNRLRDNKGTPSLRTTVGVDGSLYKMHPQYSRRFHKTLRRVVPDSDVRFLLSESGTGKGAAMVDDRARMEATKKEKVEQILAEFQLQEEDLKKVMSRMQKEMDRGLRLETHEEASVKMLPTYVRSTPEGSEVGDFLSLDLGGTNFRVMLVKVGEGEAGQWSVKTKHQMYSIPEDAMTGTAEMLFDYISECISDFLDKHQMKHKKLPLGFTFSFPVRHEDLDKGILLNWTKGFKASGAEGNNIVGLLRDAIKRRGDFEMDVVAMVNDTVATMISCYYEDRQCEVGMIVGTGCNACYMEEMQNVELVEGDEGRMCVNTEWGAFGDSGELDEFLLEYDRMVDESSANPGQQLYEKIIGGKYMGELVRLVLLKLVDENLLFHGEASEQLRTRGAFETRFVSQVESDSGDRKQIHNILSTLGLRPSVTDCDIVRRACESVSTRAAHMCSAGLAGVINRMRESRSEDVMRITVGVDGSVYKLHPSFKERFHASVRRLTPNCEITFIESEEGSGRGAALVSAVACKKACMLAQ
Source text: (§1) For transient transfection studies, cDNAs encoding chimeric hexokinase/glucokinase proteins consisting of the N-terminal domain of hexokinase I (amino acids 1-455) linked in frame to either the full length liver isoform of glucokinase (HK-liverGK, SEQ ID NO:8) or the islet isoform of glucokinase (HK-isletGK, SEQ ID NO:11) were cloned into pAC.CMVpLpA.
(§2) Plasmids containing DNA encoding either intact islet glucokinase, hexokinase I or one of the two hexokinase/glucokinase chimeras were introduced into the human embryonic kidney cell line 293, using Ca2 PO4 co-precipitation. After incubation with the plasmid DNA, cells were cultured for an additional 48 hours. Cells were harvested and crude extracts prepared for assay of glucose phosphorylating activity, using a radioisotopic assay that monitors conversion of U-^14 C glucose to U^14 C glucose-6-phosphate.
(§3) Assays were performed at 3 and 20 mM glucose. At the lower glucose concentration, hexokinase activity is maximal while glucokinase activity is very low. […] The assay was also performed in the presence and absence of 10 mM unlabeled glucose-6-phosphate (G6P).

[2] = biological target: T2, HK-liverGK chimera: N-terminal 455 amino acids of rat hexokinase I fused to rat liver glucokinase, SEQ ID NO:9 (DNA SEQ ID NO:8) (Rattus norvegicus, UniProt P17712); assay: as above; format: biochemical; conditions: 10 mM G6P, 20 mM glucose, 293 cell extracts
T2 construct: expressed in transfected cells; host or cells: human embryonic kidney 293 cells, crude extract
T2 sequence (P17712 with tags, fused parts or gaps isoform P17712-3): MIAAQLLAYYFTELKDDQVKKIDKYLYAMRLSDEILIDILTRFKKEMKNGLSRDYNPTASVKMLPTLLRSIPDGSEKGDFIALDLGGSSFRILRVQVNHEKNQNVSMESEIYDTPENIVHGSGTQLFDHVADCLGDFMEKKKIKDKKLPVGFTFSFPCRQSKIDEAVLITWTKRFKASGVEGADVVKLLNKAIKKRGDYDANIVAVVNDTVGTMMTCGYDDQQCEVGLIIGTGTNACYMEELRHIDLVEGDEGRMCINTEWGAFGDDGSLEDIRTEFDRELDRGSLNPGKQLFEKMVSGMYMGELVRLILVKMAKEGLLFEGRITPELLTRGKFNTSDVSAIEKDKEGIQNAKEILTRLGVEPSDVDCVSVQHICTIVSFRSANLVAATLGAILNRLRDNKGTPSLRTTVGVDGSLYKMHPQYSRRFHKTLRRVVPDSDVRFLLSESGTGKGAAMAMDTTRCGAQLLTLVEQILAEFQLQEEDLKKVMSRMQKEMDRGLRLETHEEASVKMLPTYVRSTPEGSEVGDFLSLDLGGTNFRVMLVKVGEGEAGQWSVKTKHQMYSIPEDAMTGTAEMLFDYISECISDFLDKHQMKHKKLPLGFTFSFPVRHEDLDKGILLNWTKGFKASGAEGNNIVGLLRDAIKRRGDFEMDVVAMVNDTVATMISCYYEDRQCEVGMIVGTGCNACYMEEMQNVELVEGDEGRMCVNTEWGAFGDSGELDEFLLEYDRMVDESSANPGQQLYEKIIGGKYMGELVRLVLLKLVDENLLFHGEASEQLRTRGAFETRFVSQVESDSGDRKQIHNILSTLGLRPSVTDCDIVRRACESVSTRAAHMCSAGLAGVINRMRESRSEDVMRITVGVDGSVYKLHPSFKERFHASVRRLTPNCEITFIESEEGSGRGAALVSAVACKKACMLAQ
Source text: as §1, §2, §3

[3] = biological target: T3, native (wild type) islet glucokinase, overexpressed (Rattus norvegicus, UniProt P17712); assay: as above; format: biochemical; conditions: 10 mM G6P, 293 cell extracts
T3 construct: Plasmids containing DNA encoding either intact islet glucokinase, hexokinase I; expressed in transfected cells; host or cells: human embryonic kidney 293 cells, crude extract
T3 sequence (P17712 1-465): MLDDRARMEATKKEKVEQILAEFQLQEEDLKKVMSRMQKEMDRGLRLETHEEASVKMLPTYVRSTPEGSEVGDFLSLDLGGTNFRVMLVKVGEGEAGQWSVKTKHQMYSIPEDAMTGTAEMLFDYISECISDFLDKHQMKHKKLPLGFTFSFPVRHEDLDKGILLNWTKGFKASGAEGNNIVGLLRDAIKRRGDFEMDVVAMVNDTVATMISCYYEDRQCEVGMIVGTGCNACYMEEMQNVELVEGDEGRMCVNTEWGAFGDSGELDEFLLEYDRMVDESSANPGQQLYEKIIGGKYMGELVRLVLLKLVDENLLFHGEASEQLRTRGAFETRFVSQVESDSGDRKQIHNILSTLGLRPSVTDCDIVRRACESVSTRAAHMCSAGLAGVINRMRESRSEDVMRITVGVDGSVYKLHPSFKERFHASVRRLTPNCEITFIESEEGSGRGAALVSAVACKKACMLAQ
Procedure: as §2, with “glucose-6-phosphate. The extract buffer and assay procedure have previously been described in detail (Kuwajima, et al., 1986; Becker, et al., 1994; each incorporated herein by reference).” for “glucose-6-phosphate.”
Assays were performed at 3 and 20 mM glucose. At the lower glucose concentration, hexokinase activity is maximal while glucokinase activity is very low. At the higher concentration, glucokinase activity is increased to near maximal. The assay was also performed in the presence and absence of 10 mM unlabeled glucose-6-phosphate (G6P). In the presence of G6P, low Km hexokinases are inhibited, but glucokinase is not.

[4] = biological target: low Km hexokinases I, II and III (HKI-III); conditions: cited from earlier work
[5] = biological target: glucokinase (GK, hexokinase IV); conditions: cited from earlier work
[6] = biological target: T4, native hexokinase I, overexpressed (Rattus norvegicus, UniProt P05708); conditions: typically seen (Becker et al., 1994; 1996); cited from earlier work
T4 sequence (P05708 1-918): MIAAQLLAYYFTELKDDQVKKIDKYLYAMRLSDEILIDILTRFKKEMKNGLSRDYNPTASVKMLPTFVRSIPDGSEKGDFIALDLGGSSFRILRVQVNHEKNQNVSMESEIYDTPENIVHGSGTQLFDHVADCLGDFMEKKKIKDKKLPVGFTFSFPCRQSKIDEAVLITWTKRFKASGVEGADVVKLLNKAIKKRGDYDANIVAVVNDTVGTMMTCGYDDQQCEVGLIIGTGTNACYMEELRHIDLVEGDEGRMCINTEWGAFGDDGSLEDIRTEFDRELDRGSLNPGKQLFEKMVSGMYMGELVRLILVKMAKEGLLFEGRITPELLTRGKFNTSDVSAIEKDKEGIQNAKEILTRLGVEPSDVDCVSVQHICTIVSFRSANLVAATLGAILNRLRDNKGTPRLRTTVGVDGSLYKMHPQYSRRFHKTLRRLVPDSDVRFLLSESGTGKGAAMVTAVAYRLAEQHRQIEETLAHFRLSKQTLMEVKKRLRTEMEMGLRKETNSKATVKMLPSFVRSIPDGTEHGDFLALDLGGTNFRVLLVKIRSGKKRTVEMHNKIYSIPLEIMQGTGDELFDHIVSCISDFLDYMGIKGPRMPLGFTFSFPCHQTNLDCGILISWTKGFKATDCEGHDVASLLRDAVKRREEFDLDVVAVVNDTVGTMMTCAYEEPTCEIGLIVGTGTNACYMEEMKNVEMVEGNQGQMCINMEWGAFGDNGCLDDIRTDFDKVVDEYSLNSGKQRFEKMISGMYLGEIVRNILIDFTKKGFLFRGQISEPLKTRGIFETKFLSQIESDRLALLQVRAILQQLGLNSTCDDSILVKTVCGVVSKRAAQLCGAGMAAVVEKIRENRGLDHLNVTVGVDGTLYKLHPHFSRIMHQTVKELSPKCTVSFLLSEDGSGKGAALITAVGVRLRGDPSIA

[7] = running text (Wilson, 1985), read-out: Km for glucose

| inhibition of glucose phosphorylating activity by G6P [1] | inhibition of glucose phosphorylating activity by G6P [2] | effect of glucose-6-phosphate on glucose phosphorylating activity [3] | SMILES | Ki ([4]; Table 1, HKI-III, read-out: Ki G-6-P) [mM] | Ki ([5]; Table 1, GK, read-out: Ki G-6-P) [mM] | glucose-6-phosphate concentration required for appreciable inhibition [5] [mM] | inhibition of glucose phosphorylating activity by G6P [6] [%] | Km [4, 7] [mM] | Km [5, 7] [mM] |
| --- | --- | --- | --- | --- | --- | --- | --- | --- | --- |
| approximately 40% | approximately 20% | no significant effect | O=P(O)(O)OC[C@H]1OC(O)[C@H](O)[C@@H](O)[C@@H]1O (stereo partly drawn) [glucose-6-phosphate] | 0.2 to 0.9 | 60 | > 10 | 90 | – | – |
| – | – | – | OC[C@H]1OC(O)[C@H](O)[C@@H](O)[C@@H]1O (stereo partly drawn) [glucose] | – | – | – | – | 0.01 to 0.05 | 6 to 8 |
